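All cell lines were grown in 96-well plates and treated with compound for 48 hours. GI50 is the concentration that inhibits growth by half.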 The source made the active and inactive calls. Cut-off read from the data, not from the text of the source: active = GI50 up to about 1.1 µM and inactive = higher.
Legend:
Test in all cases: growth of human tumour cells (NCI), 48 h
[1] = tested on: MDA-MB-231
[2] = tested on: HCT-116
[3] = tested on: SR
[4] = tested on: ACHN
[5] = tested on: SK-MEL-2
[6] = tested on: T47D
[7] = tested on: UACC-257
[8] = tested on: A549
[9] = tested on: MCF7
[10] = tested on: TK-10
[11] = tested on: IGROV-1
[12] = tested on: UO-31
[13] = tested on: SF-539
[14] = tested on: OVCAR-3
[15] = tested on: DU-145
[16] = tested on: BT-549
[17] = tested on: HT-29
[18] = tested on: MDA-MB-435
[19] = tested on: SF-268
[20] = tested on: Malme-3M
[21] = tested on: MDA-N
[22] = tested on: 786-0
[23] = tested on: OVCAR-8
[24] = tested on: HL-60
[25] = tested on: PC-3
[26] = tested on: NCI-H226
[27] = tested on: SW-620
[28] = tested on: HOP-92
[29] = tested on: M14
[30] = tested on: SK-MEL-5
[31] = tested on: Hs-578T
[32] = tested on: COLO 205
[33] = tested on: SK-MEL-28
[34] = tested on: CAKI-1
[35] = tested on: NCI-H522
[36] = tested on: OVCAR-4
[37] = tested on: EKVX
[38] = tested on: OVCAR-5
[39] = tested on: UACC-62
[40] = tested on: K562
[41] = tested on: U-251
[42] = tested on: HOP-62
[43] = tested on: LOX IMVI
[44] = tested on: KM12
[45] = tested on: NCI-H460
[46] = tested on: CCRF-CEM
[47] = tested on: SK-OV-3
[48] = tested on: NCI-H23
[49] = tested on: SNB-19
[50] = tested on: A498
[51] = tested on: MOLT-4
[52] = tested on: HCC 2998
[53] = tested on: HCT-15
[54] = tested on: SNB-75
[55] = tested on: RPMI-8226
[56] = tested on: SF-295
[57] = tested on: SN12C
[58] = tested on: NCI/ADR-RES
[59] = tested on: RXF 393

## COC(=O)C1C(O)C(C)C(O)C(C)/C=C\C=C(C)C(=O)Nc2c(C)c(OC(C)=O)c3c(c2O)C(=O)C(C)=C2OCOC(=C23)C(C)=CC(C)(O)C(O)C(C)C1O (stereo unspecified)
[1]
  GI50: 24.9 µM (inactive)
[2]
  GI50: 30.3 µM (inactive)
[3]
  GI50: 96.4 µM (inactive)
[4]
  GI50: > 100 µM (inactive)
[5]
  GI50: 32.3 µM (inactive)
[6]
  GI50: 52.2 µM (inactive)
[7]
  GI50: 23 µM (inactive)
[8]
  GI50: > 100 µM (inactive)
[9]
  GI50: 35.6 µM (inactive)
[10]
  GI50: > 100 µM (inactive)
[11]
  GI50: 87.1 µM (inactive)
[12]
  GI50: 82.4 µM (inactive)
[13]
  GI50: > 100 µM (inactive)
[14]
  GI50: 24.3 µM (inactive)
[15]
  GI50: > 100 µM (inactive)
[16]
  GI50: > 100 µM (inactive)
[17]
  GI50: 42.5 µM (inactive)
[18]
  GI50: 68.4 µM (inactive)
[19]
  GI50: 68.4 µM (inactive)
[20]
  GI50: 36.5 µM (inactive)
[21]
  GI50: 59.8 µM (inactive)
[22]
  GI50: > 100 µM (inactive)
[23]
  GI50: 34 µM (inactive)
[24]
  GI50: 29.4 µM (inactive)
[25]
  GI50: > 100 µM (inactive)
[26]
  GI50: > 100 µM (inactive)
[27]
  GI50: 35.5 µM (inactive)
[28]
  GI50: 60.4 µM (inactive)
[29]
  GI50: 38.9 µM (inactive)
[30]
  GI50: 41.2 µM (inactive)
[31]
  GI50: > 100 µM (inactive)
[32]
  GI50: 20.4 µM (inactive)
[33]
  GI50: 47 µM (inactive)

## CCC1OC(=O)CC(O)C(C)C(OC2OC(C)C(O)C(N(C)C)C2O)C(CC=O)CC(C)C(=O)/C=C/C2(C)OC2C1C (stereo unspecified)
[34]
  GI50: 23.1 µM (inactive)
[1]
  GI50: 24 µM (inactive)
[2]
  GI50: 17.9 µM (inactive)
[3]
  GI50: 13.5 µM (inactive)
[4]
  GI50: 25.8 µM (inactive)
[5]
  GI50: 48.3 µM (inactive)
[6]
  GI50: 17.2 µM (inactive)
[7]
  GI50: 17.3 µM (inactive)
[35]
  GI50: 18.5 µM (inactive)
[36]
  GI50: 55.1 µM (inactive)
[8]
  GI50: 33.8 µM (inactive)
[37]
  GI50: 40.1 µM (inactive)
[38]
  GI50: 47.3 µM (inactive)
[39]
  GI50: 19.8 µM (inactive)
[9]
  GI50: 21.5 µM (inactive)
[40]
  GI50: 12 µM (inactive)
[41]
  GI50: 30.2 µM (inactive)
[10]
  GI50: 34.2 µM (inactive)
[11]
  GI50: 23.1 µM (inactive)
[42]
  GI50: 33.4 µM (inactive)
[43]
  GI50: 16.8 µM (inactive)
[13]
  GI50: 25.2 µM (inactive)
[14]
  GI50: 23.3 µM (inactive)
[15]
  GI50: 20.7 µM (inactive)
[16]
  GI50: 37.3 µM (inactive)
[44]
  GI50: 15.3 µM (inactive)
[45]
  GI50: 32.4 µM (inactive)
[46]
  GI50: 17.2 µM (inactive)
[47]
  GI50: 58.7 µM (inactive)
[17]
  GI50: 20.2 µM (inactive)
[18]
  GI50: 27.7 µM (inactive)
[19]
  GI50: 24.9 µM (inactive)
[20]
  GI50: 11.6 µM (inactive)
[21]
  GI50: 24.4 µM (inactive)
[48]
  GI50: 26.4 µM (inactive)
[49]
  GI50: 44.4 µM (inactive)
[50]
  GI50: 36.9 µM (inactive)
[51]
  GI50: 14.1 µM (inactive)
[52]
  GI50: 15.9 µM (inactive)
[22]
  GI50: 24.1 µM (inactive)
[53]
  GI50: 32.1 µM
[23]
  GI50: 3.19 µM (inactive)
[24]
  GI50: 23.6 µM (inactive)
[25]
  GI50: 47.9 µM (inactive)
[26]
  GI50: > 100 µM (inactive)
[27]
  GI50: 20 µM (inactive)
[54]
  GI50: 23.5 µM (inactive)
[55]
  GI50: 11.1 µM (inactive)
[29]
  GI50: 18.6 µM (inactive)
[30]
  GI50: 7.03 µM (inactive)
[31]
  GI50: 27.1 µM (inactive)
[56]
  GI50: 67.9 µM (inactive)
[32]
  GI50: 19.6 µM (inactive)
[33]
  GI50: 54.6 µM (inactive)
[57]
  GI50: 15.1 µM (inactive)

## Cc1ccc(/C=C2\Cc3c(C)cc(C)cc3C2=O)c(C(=O)O)c1
[34]
  GI50: > 100 µM (inactive)
[2]
  GI50: 49.4 µM (inactive)
[3]
  GI50: 29.4 µM (inactive)
[4]
  GI50: 59.6 µM (inactive)
[5]
  GI50: 24.4 µM (inactive)
[6]
  GI50: 82.2 µM (inactive)
[7]
  GI50: 61.8 µM (inactive)
[35]
  GI50: 78.9 µM (inactive)
[36]
  GI50: 34.7 µM (inactive)
[8]
  GI50: 49.9 µM (inactive)
[37]
  GI50: 33.4 µM (inactive)
[38]
  GI50: 33.2 µM (inactive)
[39]
  GI50: 41.1 µM (inactive)
[9]
  GI50: 56.2 µM (inactive)
[40]
  GI50: 54.7 µM (inactive)
[41]
  GI50: 29.9 µM (inactive)
[10]
  GI50: 83.4 µM (inactive)
[11]
  GI50: 79.8 µM (inactive)
[42]
  GI50: 83.4 µM (inactive)
[43]
  GI50: 22.6 µM (inactive)
[12]
  GI50: 50.7 µM (inactive)
[13]
  GI50: 15.9 µM (inactive)
[58]
  GI50: 90.6 µM (inactive)
[14]
  GI50: 31 µM (inactive)
[15]
  GI50: 51.5 µM (inactive)
[16]
  GI50: 28.6 µM (inactive)
[44]
  GI50: 46.3 µM (inactive)
[45]
  GI50: 48.2 µM (inactive)
[46]
  GI50: 35.1 µM (inactive)
[17]
  GI50: 45.3 µM (inactive)
[18]
  GI50: 31.6 µM (inactive)
[19]
  GI50: 40.5 µM (inactive)
[20]
  GI50: 72.3 µM (inactive)
[21]
  GI50: 89.3 µM (inactive)
[48]
  GI50: 55.5 µM (inactive)
[59]
  GI50: 39.9 µM (inactive)
[49]
  GI50: 44.5 µM (inactive)
[50]
  GI50: 30.1 µM (inactive)
[51]
  GI50: 35.5 µM (inactive)
[52]
  GI50: 38.4 µM (inactive)
[22]
  GI50: 61.5 µM (inactive)
[53]
  GI50: 36.3 µM
[23]
  GI50: 51.8 µM (inactive)
[24]
  GI50: 23.1 µM (inactive)
[25]
  GI50: 41.9 µM (inactive)
[26]
  GI50: 23.8 µM (inactive)
[27]
  GI50: 47.4 µM (inactive)
[54]
  GI50: 58.9 µM (inactive)
[55]
  GI50: 19.3 µM (inactive)
[28]
  GI50: 36.1 µM (inactive)
[29]
  GI50: > 100 µM (inactive)
[30]
  GI50: 25.8 µM (inactive)
[31]
  GI50: 35.2 µM (inactive)
[56]
  GI50: 41.9 µM (inactive)
[32]
  GI50: 34.8 µM (inactive)
[33]
  GI50: 56.2 µM (inactive)
[57]
  GI50: 67.5 µM (inactive)

## Cc1ncc2c(n1)CCC1=C2OS(=O)(=O)CC1N(C)C (stereo unspecified)
[34]
  GI50: 69.5 µM (inactive)
[1]
  GI50: > 100 µM (inactive)
[2]
  GI50: 98.2 µM (inactive)
[3]
  GI50: > 100 µM (inactive)
[4]
  GI50: > 100 µM (inactive)
[6]
  GI50: 63.1 µM (inactive)
[7]
  GI50: > 100 µM (inactive)
[35]
  GI50: 31.8 µM (inactive)
[36]
  GI50: > 100 µM (inactive)
[8]
  GI50: > 100 µM (inactive)
[37]
  GI50: > 100 µM (inactive)
[38]
  GI50: > 100 µM (inactive)
[39]
  GI50: 96.6 µM (inactive)
[9]
  GI50: > 100 µM (inactive)
[40]
  GI50: > 100 µM (inactive)
[41]
  GI50: > 100 µM (inactive)
[10]
  GI50: > 100 µM (inactive)
[11]
  GI50: > 100 µM (inactive)
[42]
  GI50: 76.6 µM (inactive)
[43]
  GI50: > 100 µM (inactive)
[12]
  GI50: > 100 µM (inactive)
[13]
  GI50: > 100 µM (inactive)
[14]
  GI50: > 100 µM (inactive)
[15]
  GI50: > 100 µM (inactive)
[16]
  GI50: > 100 µM (inactive)
[44]
  GI50: > 100 µM (inactive)
[45]
  GI50: > 100 µM (inactive)
[46]
  GI50: 80.5 µM (inactive)
[47]
  GI50: > 100 µM (inactive)
[17]
  GI50: > 100 µM (inactive)
[18]
  GI50: > 100 µM (inactive)
[19]
  GI50: > 100 µM (inactive)
[21]
  GI50: > 100 µM (inactive)
[48]
  GI50: > 100 µM (inactive)
[49]
  GI50: > 100 µM (inactive)
[50]
  GI50: 58.2 µM (inactive)
[51]
  GI50: > 100 µM (inactive)
[22]
  GI50: > 100 µM (inactive)
[23]
  GI50: > 100 µM (inactive)
[24]
  GI50: > 100 µM (inactive)
[25]
  GI50: > 100 µM (inactive)
[26]
  GI50: > 100 µM (inactive)
[27]
  GI50: > 100 µM (inactive)
[54]
  GI50: > 100 µM (inactive)
[55]
  GI50: > 100 µM (inactive)
[29]
  GI50: 95.9 µM (inactive)
[30]
  GI50: 70 µM (inactive)
[31]
  GI50: > 100 µM (inactive)
[32]
  GI50: > 100 µM (inactive)
[33]
  GI50: > 100 µM (inactive)
[57]
  GI50: > 100 µM (inactive)

From ChEMBL document CHEMBL1201862, “PubChem BioAssay data set” (2004)
